{
  "source": "ChEMBL document CHEMBL1240331",
  "about": "“Chemical genetic interrogation of natural variation uncovers a molecule that is glycoactivated” (Nat Chem Biol, 2007)",
  "type_in_all_cases": "functional, organism-based",
  "key": {"Arabidopsis thaliana [1]": {"test_system": "Arabidopsis thaliana", "assay": "Growth inhibition of Arabidopsis thaliana ecotype Rld-2 assessed as decrease in hypocotyl length"}, "Arabidopsis thaliana [2]": {"test_system": "Arabidopsis thaliana", "assay": "Growth inhibition of Arabidopsis thaliana ecotype Pog-0 assessed as inhibition of germination"}, "Arabidopsis thaliana [3]": {"test_system": "Arabidopsis thaliana", "assay": "Growth inhibition of Arabidopsis thaliana ecotype Columbia assessed as inhibition of germination at 100 uM"}, "Arabidopsis thaliana [4]": {"test_system": "Arabidopsis thaliana", "assay": "Growth inhibition of Arabidopsis thaliana ecotype Kyoto assessed as inhibition of germination"}, "Arabidopsis thaliana [5]": {"test_system": "Arabidopsis thaliana", "assay": "Growth inhibition of Arabidopsis thaliana ecotype Columbia assessed as decrease in root length"}, "Arabidopsis thaliana [6]": {"test_system": "Arabidopsis thaliana", "assay": "Growth inhibition of Arabidopsis thaliana ecotype RRS7 assessed as decrease in root length"}, "Arabidopsis thaliana [7]": {"test_system": "Arabidopsis thaliana", "assay": "Growth inhibition of Arabidopsis thaliana ecotype KZ1 assessed as inhibition of germination"}, "Arabidopsis thaliana [8]": {"test_system": "Arabidopsis thaliana", "assay": "Growth inhibition of Arabidopsis thaliana ecotype CSH-1 assessed as inhibition of germination"}, "Arabidopsis thaliana [9]": {"test_system": "Arabidopsis thaliana", "assay": "Growth inhibition of Arabidopsis thaliana ecotype Columbia assessed as inhibition of germination"}, "Arabidopsis thaliana [10]": {"test_system": "Arabidopsis thaliana", "assay": "Growth inhibition of Arabidopsis thaliana ecotype Br-0 assessed as inhibition of germination"}, "Arabidopsis thaliana [11]": {"test_system": "Arabidopsis thaliana", "assay": "Growth inhibition of Arabidopsis thaliana ecotype Ull2-3 assessed as inhibition of germination"}, "Arabidopsis thaliana [12]": {"test_system": "Arabidopsis thaliana", "assay": "Growth inhibition of Arabidopsis thaliana ecotype LIN assessed as inhibition of germination"}, "Arabidopsis thaliana [13]": {"test_system": "Arabidopsis thaliana", "assay": "Growth inhibition of Arabidopsis thaliana ecotype Ra-0 assessed as inhibition of germination"}, "Arabidopsis thaliana [14]": {"test_system": "Arabidopsis thaliana", "assay": "Growth inhibition of Arabidopsis thaliana ecotype Co assessed as inhibition of germination"}},
  "note": "Calls of active or inactive are those of the source. No cut-off for these calls is given here.",
  "data": [
    {"smiles": "CCOC(=O)N1CCN(c2cc(C)c3ccc(Cl)cc3n2)CC1", "note": "[POLARAZINE]", "values": [
      {"measurement": "IC50", "setting": "Arabidopsis thaliana [1]", "result": 13, "unit": "µM"}
    ]},
    {"smiles": "COc1ccc2occ(C(=O)c3ccccc3Cl)c(=O)c2c1", "values": [
      {"measurement": "IC50", "setting": "Arabidopsis thaliana [2]", "result": 3, "unit": "µM"}
    ]},
    {"smiles": "CCN(CC)c1ccc(C(=O)c2ccccc2C(=O)O)c(O)c1", "values": [
      {"measurement": "growth inhibition (GI)", "setting": "Arabidopsis thaliana [3]", "result": "inactive"},
      {"measurement": "IC50", "setting": "Arabidopsis thaliana [4]", "result": 12.5, "unit": "µM"}
    ]},
    {"smiles": "Cc1ccc(C(C)C)c(OCC(=O)N/N=C/c2cccnc2)c1", "note": "[CHUBOXYPYR]", "values": [
      {"measurement": "IC50", "setting": "Arabidopsis thaliana [5]", "result": 80, "unit": "µM"},
      {"measurement": "IC50", "setting": "Arabidopsis thaliana [6]", "result": 22, "unit": "µM"}
    ]},
    {"smiles": "O=S(=O)(NCc1ccccn1)c1ccc(Br)c2ccccc12", "note": "[PYRABACTIN A]", "values": [
      {"measurement": "IC50", "setting": "Arabidopsis thaliana [7]", "result": 2.2, "unit": "µM"}
    ]},
    {"smiles": "CCOc1ccc(S(=O)(=O)NCc2ccccn2)c2ccccc12", "note": "[PYRABACTIN B]", "values": [
      {"measurement": "IC50", "setting": "Arabidopsis thaliana [8]", "result": 2.5, "unit": "µM"},
      {"measurement": "IC50", "setting": "Arabidopsis thaliana [9]", "result": 8.4, "unit": "µM"}
    ]},
    {"smiles": "O=[N+]([O-])c1ccc(CN2CCCCC2c2cccnc2)cc1", "note": "(stereo not drawn)", "values": [
      {"measurement": "growth inhibition (GI)", "setting": "Arabidopsis thaliana [3]", "result": "inactive"},
      {"measurement": "IC50", "setting": "Arabidopsis thaliana [10]", "result": 3, "unit": "µM"}
    ]},
    {"smiles": "OC(c1ccccc1)(c1ccccc1)c1c[nH]cn1", "values": [
      {"measurement": "IC50", "setting": "Arabidopsis thaliana [11]", "result": 17, "unit": "µM"},
      {"measurement": "growth inhibition (GI)", "setting": "Arabidopsis thaliana [3]", "result": "inactive"}
    ]},
    {"smiles": "O=C(c1ccccc1Cl)c1coc2ccccc2c1=O", "values": [
      {"measurement": "IC50", "setting": "Arabidopsis thaliana [12]", "result": "≤ 14", "unit": "µM"}
    ]},
    {"smiles": "CC1CCC(C(C)C)C(=O)/C1=C\\c1ccc(N)cc1", "note": "(stereo not drawn)", "values": [
      {"measurement": "growth inhibition (GI)", "setting": "Arabidopsis thaliana [3]", "result": "inactive"},
      {"measurement": "IC50", "setting": "Arabidopsis thaliana [13]", "result": 7, "unit": "µM"}
    ]},
    {"smiles": "CCc1ccc(CN2CCCCC2c2cccnc2)cc1", "note": "(stereo not drawn)", "values": [
      {"measurement": "growth inhibition (GI)", "setting": "Arabidopsis thaliana [3]", "result": "inactive"},
      {"measurement": "IC50", "setting": "Arabidopsis thaliana [14]", "result": 10, "unit": "µM"}
    ]}
  ]
}
